# Measured values: US20060128645A1, “Inhibition of proliferation and infiltration of brain tumor cells caused by expression of ampa-type glutamate receptor subunit” (priority 2002, published 2006)
# How the values were obtained:
# [1] = system: Ca^2+-permeable AMPARs in CGNH-89 cells; assay: AMPA-induced [Ca2+]i changes (fura-2 AM) in CGNH-89 cells after adenoviral gene transfer; format: cell-based, human; conditions: 200 μM AMPA + 100 μM CTZ
# Method: In FIGS. 3p˜x, the present inventors confirmed changes in Ca^2+ permeability induced by adenoviral-mediated introduction of GluR2 (R) or GluR2 (Q) in CGNH-89 cells. […] The same treatment had no effect on [Ca^2+]i in cells expressing GluR2 (FIGS. 3s, t and u) in 4 culture dishes, whereas it caused a marked increase in [Ca^2+]i from 77±21 to 1185±240 nM (n=40) in cells expressing GluR2 (Q) in 2 culture dishes (FIGS. 3v, w and x).
# (2) AxCANCre and AxCAGFP: recombinant adenoviruses for expression of Cre recombinase and EGFP (Clontech), respectively. Cells were infected at a multiplicity of infection (MOI) of 5 with each of the recombinant adenoviruses 2˜5 days before experiments.
# (§1) Cells were loaded with fura 2-AM (Dojin) at room temperature for 40 min. Fluorescence images were obtained at an excitation wavelength of 340 and 380 nm using the Argus/HiSCA system (Hamamatsu Photonics). The 340/380 nm fluorescence ratio was converted to [Ca^2+]i as described previously (Cell, 88, 49-55, 1997).
# CGNH-89 cells [2] = assay: ATP-induced [Ca2+]i increase in CGNH-89 cells; format: cell-based, human; conditions: 25 μM ATP; control cells, n=50
# Method: The present inventors examined whether CGNH-89 cells expressing GluR2 (R) could increase [Ca^2+]i to a similar extent as control cells in response to ATP, which is known to mediate Ca^2+ signaling in glial cells (J. Neurosci., 18, 8794-8804, 1998).
# as §1
# [3] = molecular target: T1, Ca^2+-permeable AMPARs in glioblastoma cells in primary culture (Homo sapiens, UniProt P42261); assay: AMPA-induced [Ca2+]i changes (fura-2 AM) in primary cultured glioblastoma cells; format: cell-based
# T1 construct: To examine functional expression of Ca^2+-permeable AMPARs in glioblastoma cells in primary culture; endogenous in cells; host or cells: primary (explant) cultures of glioblastoma multiforme surgical samples
# Method: as §1
# CGNH-89 cells [4] = assay: Cell morphology of CGNH-89 glioblastoma cells; format: cell-based, human
# CGNH-89 cells [5] = assay: TUNEL apoptotic index in CGNH-89 cells; format: cell-based, human; conditions: 10 μM YM872, 2 days, n=4
# Description: The present inventors next estimated the apoptotic index in CGNH-89 cells expressing GluR2 (R) using the terminal deoxynucleotide transferase (TdT)-mediated dUTP nick end labeling (TUNEL) method (Science, 267, 1445-1449, 1995), and compared this value with that in cells infected with only AxCALNLGluR2 (control). The apoptotic index was defined as the number of TUNEL-positive cells divided by the total number of propidium iodine (PI)-positive nuclei per microscopic field. To obtain the mean value in each culture dish, 10 to 15 randomly chosen fields were sampled.
# (§2) For TUNEL and cell proliferation assays, cells were plated at a density of 2×10^4/well in Lab-Tek 4-well glass slides filled with the standard culture medium. At 6 hr. after plating, the medium was replaced with glutamate-free medium and cells were infected with the adenoviruses. At 48 hr. after plating, glutamate (100 μM) was added to the medium and cells were fixed at 5 days postinfection. TUNEL assay was performed with an In Situ Cell Death Detection kit (MBL). Cell proliferation assay was performed with anti-Ki-67 monoclonal antibody (Dako) staining indices. Migration assay was performed in a transwell chamber (8 μm pore size) (Corning Corstar Corp.).
# CGNH-89 cells [6] = assay: Ki-67 staining index (proliferation activity) in CGNH-89 cells; format: cell-based, human; conditions: 10 μM YM872, 2 days, n=4
# Method: There were no significant changes in these 2 indices between cells expressing GluR2 (Q) and overexpressing GluR1.
# as §2, with “At 48 hr. after plating, glutamate (100 μM) was added to the medium and cells were fixed at 5 days postinfection.” left out
# [7] = system: CGNH-NM, MRCH-92 and U87 MG; assay: Other 3 cell lines expressing Ca2+-permeable AMPARs: morphology, apoptotic index, Ki-67 index, migration; format: cell-based, human
# [8] = system: tumor produced by grafting CGNH-89 cells into the subcutaneous tissue; assay: Subcutaneous CGNH-89 tumor growth in nude mice; format: in vivo
# Description: To further estimate quantitatively whether manipulation of Ca^2+-permeable AMPARs alters tumor growth in vivo, the present inventors examined effects of GluR2 and GluR2 (Q) expression and/or application of the AMPAR antagonist YM872 on the growth of tumor produced by grafting CGNH-89 cells into the subcutaneous tissue of nude mice (FIG. 6)-(FIGS. 6a and b).
# Proliferation of tumor cells expressing GluR2 (Q) was inhibited by application of YM872 (FIGS. 6g, h and i).
# In addition, the effect of adenoviral-mediated expression of GluR2 (R) and GluR2 (Q) on tumor growth was evaluated quantitatively in subcutaneous tumors with or without application of YM872, an antagonist for AMPA-type glutamate receptors. Cell suspensions (1×10^7/100 μl) were injected subcutaneously in the flank of nude mice 5˜6 weeks old (body weight, 18˜20 g). Adenoviruses ([…], diluted in a total of 100 μl of PBS) were administered intratumorally once 5 days after tumor inoculation with a 27-gauge needle. AxCALNLGluR2 without AxCANCre was administered for control.
# YM872, a kind gift from Yamanouchi Pharmaceutical Company, was dissolved in PBS. […] In this series of experiments, 100 mg/kg YM872 was used. PBS (100 μl) was administered intraperitoneally for control. Tumor volume was calculated according to the formula (length×width^2 )/2. At the end of each experiment, tumor tissues were subjected to histological analysis.
# tumor cells = assay: Tumor cells cultured in glutamate-free medium, glutamate add-back; format: cell-based, human; conditions: addition of 100 ˜M glutamate after 4˜5 days in glutamate-free medium with 10% dialyzed FCS
# Method: The endogenous agonist for AMPARs is glutamate. The culture medium in this experiment was supplemented with fetal calf serum (FCS) and contained up to 100 μM glutamate. The presence of glutamate was essential for maintenance of fusiform morphology as well as proliferation of the tumor cells. When the cells were cultured in glutamate-free medium supplemented with 10% dialyzed FCS for 4˜5 days, they became polygonal in shape and the number of apoptotic cells increased. These changes were restored by addition of 100 ˜M glutamate. An obvious question is whether a sufficient concentration of glutamate to activate Ca^2+-permeable AMPARs is actually supplied to proliferating and migrating tumor cells in the brain. It has been shown that implanted glioma cells continue to secrete glutamate, resulting in a detectable elevation of extracellular glutamate, and that gliomas with high glutamate release have a distinct growth advantage (Nature Med., 7, 1010-1015, 2001).
# [9] = other 3 cell lines (CGNH-NM, MRCH-92, U87 MG)
# [10] = 22 days after tumor inoculation
# T1 sequence (P42261 19-906): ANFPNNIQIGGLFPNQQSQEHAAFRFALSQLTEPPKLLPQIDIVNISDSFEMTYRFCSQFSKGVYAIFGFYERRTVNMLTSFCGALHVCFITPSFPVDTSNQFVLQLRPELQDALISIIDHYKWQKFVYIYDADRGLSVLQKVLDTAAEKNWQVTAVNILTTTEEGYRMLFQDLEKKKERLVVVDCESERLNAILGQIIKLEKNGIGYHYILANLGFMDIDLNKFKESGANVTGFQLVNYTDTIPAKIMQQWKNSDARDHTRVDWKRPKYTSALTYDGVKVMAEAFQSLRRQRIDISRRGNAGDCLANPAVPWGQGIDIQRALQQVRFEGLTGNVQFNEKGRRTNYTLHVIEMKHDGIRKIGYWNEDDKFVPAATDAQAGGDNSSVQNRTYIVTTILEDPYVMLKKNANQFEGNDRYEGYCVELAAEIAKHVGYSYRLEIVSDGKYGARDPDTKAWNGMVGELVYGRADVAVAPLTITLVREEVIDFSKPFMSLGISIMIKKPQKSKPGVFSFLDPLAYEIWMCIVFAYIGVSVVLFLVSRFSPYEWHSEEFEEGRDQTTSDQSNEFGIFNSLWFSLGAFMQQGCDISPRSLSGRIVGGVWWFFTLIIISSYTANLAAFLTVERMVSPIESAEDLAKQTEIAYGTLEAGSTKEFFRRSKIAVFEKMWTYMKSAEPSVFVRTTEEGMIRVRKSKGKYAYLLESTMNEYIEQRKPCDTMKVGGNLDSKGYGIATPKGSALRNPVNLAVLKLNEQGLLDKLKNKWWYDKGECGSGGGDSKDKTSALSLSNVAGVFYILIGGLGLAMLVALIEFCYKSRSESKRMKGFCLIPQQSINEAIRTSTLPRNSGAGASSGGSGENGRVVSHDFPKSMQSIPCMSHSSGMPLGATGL
smiles,measurement,setting,value
"Cc1onc(O)c1CC(N)C(=O)O (stereo not drawn) [AMPA, α-amino-3-hydroxy-5-methyl-4-isoxazole propionic acid]",control cells in which [Ca^2+]i increased,[1]; 10 culture dishes,52±14%
same,[Ca^2+]i during application of AMPA together with CTZ,"[1]; control CGNH-89 cells, n=350",275 ± 50 nM
Nc1ncnc2c1ncn2[C@@H]1O[C@H](COP(=O)(O)OP(=O)(O)OP(=O)(O)O)[C@@H](O)[C@H]1O [ATP],[Ca^2+]i after application of ATP,CGNH-89 cells [2],1574 ± 161 nM
[K+] [K^+],effect on [Ca^2+]i,[3]; 100 mM K^+,did not increase
"NS(=O)(=O)c1cccc2c1c([N+](=O)[O-])cc1nc(O)c(O)nc12 [NBQX, 2,3-dihydroxy-6-nitro-7-sulfamoyl-benzo(F)-quinoxaline]",change in cell morphology,CGNH-89 cells [4]; 20 μM NBQX for 2 days,"retraction of cytoplasmic processes, enlarged and flattened somata"
"O.O=C(O)Cn1c(=O)c(=O)[nH]c2cc([N+](=O)[O-])c(-n3ccnc3)cc21 [YM872, [2,3-dioxo-7-(1H-imidazol-1-yl)-6-nitro-1,2,3,4-tetrahydroquinoxalin-1-yl]acetic acid monohydrate]",effect on AMPA-induced increase in [Ca^2+]i,[3]; 10 μM YM872,selectively abolished
same,change in cell morphology,CGNH-89 cells [4]; 10 μM YM872 for 2 days,"retraction of cytoplasmic processes, enlarged and flattened somata"
same,apoptotic index,CGNH-89 cells [5],18.0±2.5%
same,Ki-67 staining index,CGNH-89 cells [6],< 0.1%
same,Ki-67 staining index,[7]; [9],decreased
same,apoptotic index,[7]; [9],increased
same,cell migration,[7]; other 3 cell lines expressing Ca^2+-permeable AMPARs,inhibited the cell migration
same,apoptotic cells in tumor tissues (histology),[8]; [10],a large number of apoptotic cells
same,mitotic cells in tumor tissues (histology),[8]; [10],scarcely detected
same,further effect on tumor expressing GulR2,"[8]; YM872 intraperitoneal, 100 mg/kg",no further inhibitory effects
same,size of tumor,"[8]; YM872 intraperitoneal, 100 mg/kg daily, vs PBS, n=12",significantly reduced
same,growth of tumor expressing GluR2 (Q),"[8]; YM872 intraperitoneal, 100 mg/kg, n=12",inhibited
same,proliferation of tumor cells expressing GluR2 (Q) (histology),[8]; application of YM872,inhibited
same,"inhibition of tumor growth, dose dependence","[8]; daily intraperitoneal 10, 50 and 100 mg/kg for 2 weeks",Dose-dependent inhibition
same,tumor proliferation in cells expressing GluR2 (histology),[8]; treatment with YM872,no further inhibition
N[C@@H](CCC(=O)O)C(=O)O [glutamate],polygonal shape and increased apoptotic cells caused by glutamate-free medium,tumor cells,restored
